From the supplement of paper PMC11451515

Columns and labels:
Settings in all cases: 48 h
SEM cells [1] = test: cell viability relative to DMSO control; higher = less cytotoxic
Outline: (§1)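 In 1536-well plates, 5 μl of leukemia cells were seeded per well: 500 cells/well for NOMO1 or SEM and 1000 cells/well for P12-Ichikawa. Each line had first been adapted for at least four passages in each medium. Library compounds in DMSO were pin-dosed at 11 threefold concentrations between 47 μM and 0.79 nM, and CellTiter-Glo One luminescence was read after 48 h at 37°C. Viability is a per-plate percentage relative to DMSO wells, with cell-free wells as background.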

NOMO1 [2] = test: as above
Outline: as §1

P12-Ichikawa [3] = test: as above
Outline: as §1

SEM cells [4] = test: AUC of viability dose-response curve (% viability x log10 dose units); higher = less sensitive
Outline: (§2)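 Library compounds in DMSO were applied for 48 h at 37°C at 11 threefold doses (47 μM to 0.79 nM) to medium-adapted leukemia cells in 1536-well plates holding 500 or 1000 cells/well. Luminescence from CellTiter-Glo One was normalised plate by plate against DMSO and cell-free wells. Area under the curve came from trapezoidal integration of a log-logistic fit, after scaling curves that rose above full viability and discarding those that failed quality control. The fit had four parameters and used log10 doses.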

NOMO1 [5] = test: as above
Outline: as §2

P12-Ichikawa [6] = test: as above
Outline: as §2

CN(C)c1nc(Cc2ccc(NC(=O)c3ccc4ccccc4c3)cc2)nc(Cl)c1CC(=O)O
cell viability [%]
Settings | NOMO1 [2] | P12-Ichikawa [3] | SEM cells [1]
HPLM + 10% dialyzed FBS, 0.000781 µM | 113 | 112 | 120
HPLM + 10% dialyzed FBS, 0.00234 µM | 116 | 112 | 114
HPLM + 10% dialyzed FBS, 0.00702 µM | 112 | 101 | 112
HPLM + 10% dialyzed FBS, 0.0211 µM | 126 | 101 | 116
HPLM + 10% dialyzed FBS, 0.0632 µM | 114 | 108 | 109
HPLM + 10% dialyzed FBS, 0.19 µM | 90.9 | 124 | 111
HPLM + 10% dialyzed FBS, 0.569 µM | 106 | 104 | 138
HPLM + 10% dialyzed FBS, 1.71 µM | 65.2 | 99.4 | 113
HPLM + 10% dialyzed FBS, 5.12 µM | 57.6 | 84.8 | 105
HPLM + 10% dialyzed FBS, 15.4 µM | 47.2 | 84.8 | 110
HPLM + 10% dialyzed FBS, 46.1 µM | 48.1 | 69.3 | 105
RPMI 5 mM glucose + 10% FBS, 0.000781 µM | 115 | 117 | 110
RPMI 5 mM glucose + 10% FBS, 0.00234 µM | 98.2 | 107 | 116
RPMI 5 mM glucose + 10% FBS, 0.00702 µM | 100 | 124 | 127
RPMI 5 mM glucose + 10% FBS, 0.0211 µM | 98.3 | 115 | 108
RPMI 5 mM glucose + 10% FBS, 0.0632 µM | 100 | 117 | 107
RPMI 5 mM glucose + 10% FBS, 0.19 µM | 97 | 114 | 110
RPMI 5 mM glucose + 10% FBS, 0.569 µM | 97.1 | 107 | 110
RPMI 5 mM glucose + 10% FBS, 1.71 µM | 74.3 | 98.7 | 93.8
RPMI 5 mM glucose + 10% FBS, 5.12 µM | 73 | 87.2 | 107
RPMI 5 mM glucose + 10% FBS, 15.4 µM | 61.8 | 69.8 | 102
RPMI 5 mM glucose + 10% FBS, 46.1 µM | 44.4 | 73.6 | 105
RPMI 5 mM glucose + 10% dialyzed FBS, 0.000781 µM | 108 | 106 | 119
RPMI 5 mM glucose + 10% dialyzed FBS, 0.00234 µM | 110 | 113 | 115
RPMI 5 mM glucose + 10% dialyzed FBS, 0.00702 µM | 98.6 | 113 | 136
RPMI 5 mM glucose + 10% dialyzed FBS, 0.0211 µM | 106 | 111 | 122
RPMI 5 mM glucose + 10% dialyzed FBS, 0.0632 µM | 111 | 106 | 126
RPMI 5 mM glucose + 10% dialyzed FBS, 0.19 µM | 99.4 | 107 | 108
RPMI 5 mM glucose + 10% dialyzed FBS, 0.569 µM | 92.9 | 105 | 112
RPMI 5 mM glucose + 10% dialyzed FBS, 1.71 µM | 62.1 | 104 | 107
RPMI 5 mM glucose + 10% dialyzed FBS, 5.12 µM | 63.1 | 84 | 111
RPMI 5 mM glucose + 10% dialyzed FBS, 15.4 µM | 60.7 | 68.7 | 137
RPMI 5 mM glucose + 10% dialyzed FBS, 46.1 µM | 43.6 | 61.5 | 108

AUC of viability dose-response curve
Settings | NOMO1 [5] | P12-Ichikawa [6] | SEM cells [4]
HPLM + 10% dialyzed FBS | 377 | 440 | 461
RPMI 5 mM glucose + 10% FBS | 401 | 427 | 447
RPMI 5 mM glucose + 10% dialyzed FBS | 392 | 434 | 455
